# Reference: patent US20060058296A1, “Treatment of osteolytic lesions associated with multiple myeloma by inhibition of p38 map kinase” (Scios, Inc., priority 2003, published 2006)
# Counter-ions that a name gives are not always drawn.
# Columns and labels:
# VEGF = VEGF secretion from MM contact-activated BMSC; format: cell-based, human
# From the text: p38 MAPK controls secretion of these factors in-vitro in systems representing the BM milieu.
# In addition to promoting vascularization, VEGF is a growth-supporting factor for MM cells. Neovascularization of MM tumors in the marrow allows growth beyond diffusion limitations for gas and nutrient exchange. VEGF is secreted from MM contact-activated BMSC, and this secretion is inhibited by p38 MAPK inhibitor Compound 4 (FIG. 10).
# [1] = tested on: osteolytic lesions associated with multiple myeloma; assay: Treatment of a patient with osteolytic lesions associated with multiple myeloma; format: in vivo, human; details: therapeutic amount
# From the text: A patient is diagnosed with multiple myeloma and presents with a number of holes or osteolytic lesions. The osteolytic lesions are caused by the rapid growth of myeloma cells, which displace osteoblasts, and disrupting the balance of bone creation and destruction. […] Osteoblast activity is increased relative to osteoclast activity. Pain from bone destruction, fracture and the like is reduced. The osteolytic lesions are caused by the rapid growth of myeloma cells, which displace osteoblasts, and disrupting the balance of bone creation and destruction. […] Osteoblast activity is increased relative to osteoclast activity. Pain from bone destruction, fracture and the like is reduced.
# COX-2 mRNA = assay: LPS-induced COX-2 mRNA; format: cell-based, human
# RPMI = assay: MM cell proliferation, RPMI; format: cell-based; details: 72-hour exposure
# ARH-77 = assay: MM cell proliferation, ARH-77; format: cell-based; details: ARH-77, 72-hour exposure
# [2] = tested on: human myeloma (RPM18266) tumor; assay: Human myeloma xenograft plasmacytoma model in beige-nude-xid mouse; format: in vivo
# Description: The p38 MAPK signaling pathway plays an important role in different pathological conditions and specific inhibitors of p38 alpha and beta MAPK block production of the major inflammatory cytokines. Human multiple myeloma (MM) is an incurable neoplasm of terminally differentiated B cells and MM disease progression is affected by immunoregulatory elements such as IL-6 and other cytokines. […] Treatment (90 mg/kg/bid by oral gavage) is initiated in mice with palpable tumor size (˜200 mm^3) as judged by tumor volume.
# IM9 = assay: MM cell proliferation, IM9; format: cell-based; details: IM9, 72-hour exposure
# MIP-1α = MIP-1α production in MM/BMSC co-cultures; format: cell-based, human
# From the text: MIP-1α elevation in MM patient serum correlates with disease severity. Unlike many MM-relevant cytokines present in the marrow microenvironment, which are produced mainly by the activated BMSC, MM cells are the primary source of MIP-1α. IL-1 further induces MIP-1α production.
# [3] = tested on: primary murine marrow derived osteoclast precursors; assay: Osteoclast differentiation, primary murine marrow derived osteoclast precursors; format: cell-based; details: di-hydroxy vitamin D induced differentiation; for mature osteoclast formation: 100 nM; for mature osteoclast formation prevented: increasing doses
# Description: Inhibition of p38α MAPK prevented osteoclast differentiation in two types of standard in vitro models. In the first, primary murine marrow derived osteoclast precursors are cultured in the presence of di-hydroxy vitamin D to induce differentiation. […] In the second model, primary human marrow-derived osteoclast precursors are cultured in the presence of dihydroxy vitamin D [(OH)2D3] to induce differentiation. In both cases, 100 nM of the exemplary p38 MAPK inhibitors prevents osteoclast formation as measured by tartrate resistant acid phosphatase (TRAP) staining or by staining with 23c6 (a mature osteoclast cell surface marker)(FIG. 14).
# COX-2 enzyme = target: T1, COX-2 enzyme (Homo sapiens, UniProt P35354); assay: Activity of purified COX-2 enzyme; format: biochemical
# T1 sequence (P35354 18-604): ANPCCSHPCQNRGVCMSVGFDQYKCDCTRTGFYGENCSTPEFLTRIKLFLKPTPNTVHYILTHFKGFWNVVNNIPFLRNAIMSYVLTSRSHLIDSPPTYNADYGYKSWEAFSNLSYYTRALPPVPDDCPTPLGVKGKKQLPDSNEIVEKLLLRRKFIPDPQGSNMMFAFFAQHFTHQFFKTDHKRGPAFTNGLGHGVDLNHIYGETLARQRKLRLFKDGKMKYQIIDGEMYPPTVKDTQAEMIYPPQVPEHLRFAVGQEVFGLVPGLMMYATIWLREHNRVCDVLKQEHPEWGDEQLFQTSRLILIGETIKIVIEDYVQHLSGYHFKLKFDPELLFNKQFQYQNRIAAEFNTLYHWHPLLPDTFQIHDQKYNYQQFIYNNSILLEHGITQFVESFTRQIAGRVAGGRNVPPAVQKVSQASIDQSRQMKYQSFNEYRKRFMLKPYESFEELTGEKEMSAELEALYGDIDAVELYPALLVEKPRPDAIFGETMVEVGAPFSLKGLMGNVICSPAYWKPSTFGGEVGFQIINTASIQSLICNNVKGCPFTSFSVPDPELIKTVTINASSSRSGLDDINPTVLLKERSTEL
# COX-1 = target: T2, COX-1 (Homo sapiens, UniProt P23219); assay: Activity of platelet-derived preparation of COX-1; format: biochemical
# T2 construct: a platelet-derived preparation of COX-1; from tissue; host or cells: platelets
# [4] = tested on: arthritic lesions in the hind paws; assay: Chick type II collagen arthritis in rats with established disease; format: in vivo, rat
# Description: Rats treated intradermally with chick type II collagen develop arthritic lesions in the hind paws similar to human arthritic joints with respect to accumulation of pannus tissue, presence of inflammatory cells, and increased expression of inflammatory cytokines. […] Animals were scored daily by an observer blinded with respect to treatment regimen. At the completion of the study on Day 28, radiographic images were analyzed in a blinded manner, based upon the extent of soft tissue swelling, joint space narrowing, and bone destruction. Animal weights at the beginning and end of the study were also recorded, as weight loss is associated with disease progression in this model.
# U266B = assay: MM cell proliferation, U266B; format: cell-based; details: 72-hour exposure
# BMSC = BMSC viability, MTS assay of respiratory activity; format: cell-based, human; details: tested up to 50-fold excess of active concentration
# Description: Neither p38 MAPK inhibition nor high concentrations of p38 MAPK inhibitor (tested up to 50-fold excess of active concentration) affected BMSC viability (FIG. 4). Viability was measured using a standard enzymatic assay of respiratory activity, MTS (3-(4,5-dimethylthiazol-2-yl)-5-(3-carboxymethoxyphenyl)-2-(4-sulfophenyl)-2H-tetrazolium). Results obtained with the p38 MAPK inhibitor are in agreement with published results using a different p38α MAPK inhibitor.
# IL-11 = assay: IL-1 and TGFβ induction of IL-11 in BMSC and MM/BMSC cultures; format: cell-based, human; details: 100 nM
# From the text: p38 MAPK controls secretion of these factors in-vitro in systems representing the BM milieu. […] IL-11 elicits pro-fibrotic responses and promotes osteoclast-driven bone resorption.
# IL-1β = assay: LPS-induced IL-1β release in human whole blood; format: cell-based; details: human whole blood (undiluted)
# From the text: IL-1β illustrates the importance of amplification loops in myeloma-induced cytokine stimulation. IL-1β plays a well-documented role in the induction of multiple cytokines in a “cytokine network” of feedback loops, including strong induction of IL-6. The ability of IL-1 to increase mRNA expression and induce secretion of the MM-relevant cytokines from MM/BMSC cultures is evidence of this role.
# RANKL mRNA = RANKL mRNA in BMSC and MM/BMSC cultures; format: cell-based, human; details: 100 nM
# Description: In addition, 100 nM of these p38 MAPK inhibitors blocks the weaker induction of RANKL by IL-6 in BMSC.
# TNF-α = assay: LPS-induced TNF-α secretion in whole blood; format: cell-based, human
# Description: Other in vitro assays can assess the production of TNF-a as a correlation to p38 MAP kinase activity. One such example is a Human Whole Blood Assay. In this assay, venous blood is collected from, e.g., healthy male volunteers into a heparinized syringe and is used within 2 hours of collection. Test compounds are dissolved in 100% DMSO and 1 μl aliquots of drug concentrations ranging from 0 to 1 mM are dispensed into quadruplicate wells of a 24-well microtiter plate (Nunclon Delta SI, Applied Scientific Co., San Francisco, Calif.). Whole blood is added at a volume of 1 ml/well and the mixture is incubated for 15 minutes with constant shaking (Titer Plate Shaker, Lab-Line Instruments, Inc., Melrose Park, Ill.) at a humidified atmosphere of 5% CO2 at 37° C. Whole blood is cultured either undiluted or at a final dilution of 1:10 with RPMI 1640 (Gibco 31800+NaHCO3, Life Technologies, Rockville, Md. and Scios, Inc., Sunnyvale, Calif.). At the end of the incubation period, 10 μl of LPS (E. coli 0111:B4, Sigma Chemical Co., St. Louis, Mo.) is added to each well to a final concentration of 1 or 0.1 μg/ml for undiluted or 1:10 diluted whole blood, respectively. The incubation is continued for an additional 2 hours. The reaction is stopped by placing the microtiter plates in an ice bath, and plasma or cell-free supernates are collected by centrifugation at 3000 rpm for 10 minutes at 4° C. […]
# PGE2 = PGE2 levels in LPS-induced human whole blood; format: cell-based
# T2 sequence (P23219 24-599): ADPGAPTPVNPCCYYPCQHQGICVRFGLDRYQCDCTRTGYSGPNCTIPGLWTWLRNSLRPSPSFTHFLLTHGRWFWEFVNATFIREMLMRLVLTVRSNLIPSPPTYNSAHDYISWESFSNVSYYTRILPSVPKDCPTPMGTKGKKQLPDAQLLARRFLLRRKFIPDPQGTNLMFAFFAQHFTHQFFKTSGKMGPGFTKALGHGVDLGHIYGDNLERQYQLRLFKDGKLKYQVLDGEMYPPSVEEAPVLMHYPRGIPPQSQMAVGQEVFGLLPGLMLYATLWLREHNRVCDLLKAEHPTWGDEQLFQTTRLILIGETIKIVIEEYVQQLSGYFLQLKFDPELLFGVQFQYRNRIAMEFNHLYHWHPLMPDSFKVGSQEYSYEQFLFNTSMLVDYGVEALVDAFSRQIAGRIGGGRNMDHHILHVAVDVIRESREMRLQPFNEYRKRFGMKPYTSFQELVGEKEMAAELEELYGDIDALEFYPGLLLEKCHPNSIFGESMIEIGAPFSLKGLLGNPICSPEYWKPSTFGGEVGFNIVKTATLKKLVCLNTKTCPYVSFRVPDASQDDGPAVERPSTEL
compound,measurement,setting,value
COC(=O)C(=O)c1cn(C(=O)c2ccc(Cl)cc2)c2cc(OC)c(C(=O)N3CCC(Cc4ccccc4)CC3)cc12 [Compound 4],VEGF secretion,VEGF,inhibited
C[C@@H]1CN(Cc2ccc(F)cc2)[C@@H](C)CN1C(=O)c1cc2c(C(=O)C(=O)N(C)C)cn(C)c2cc1Cl [Compound 57 hydrochloride salt],"pain from bone destruction, fracture and the like",[1],reduced
C[C@@H]1CN(Cc2ccc(F)cc2)[C@@H](C)CN1C(=O)c1cc2c(C(=O)C(=O)N(C)C)cn(C)c2cc1Cl [Compound 57],LPS-induced COX-2 mRNA,COX-2 mRNA,inhibited
same,reduction in proliferation,RPMI,about 20%
same,reduction in proliferation,ARH-77,about 20%
same,HSP27 expression in tumor cells,"[2]; mouse, in vivo",significantly reduce
same,p38 expression in tumor cells,"[2]; mouse, in vivo",significantly reduce
same,tumor volume,"[2]; palpable tumors (~200 mm^3), 90 mg/kg/bid oral gavage, 21 days",significantly reduced
same,tumor volume,[2]; treatment initiated at pronounced tumor size (~800 mm^3),significant reduction
same,"number of neoformed microvessels, histological assessment",[2]; vs vehicle,significant reduction
same,"tumor volume, histological assessment at the end of dosing",[2]; vs vehicle,significant reduction
same,reduction in proliferation,IM9,about 20%
same,IL-1-induced production of MIP-1α,MIP-1α,substantially reduce
same,untreated production of MIP-1α,MIP-1α,substantially reduce
same,mature osteoclast formation,[3],complete blockage
same,mature osteoclast formation prevented,[3],in a dose dependent manner
same,activity of the purified COX-2 enzyme,COX-2 enzyme,did not directly inhibit
same,activity of a platelet-derived preparation of COX-1,COX-1,nor did it inhibit
same,clinical score,[4]; 10 mg/kg orally once a day,intermediate between the vehicle and 40 mg/kg groups
same,clinical score,"[4]; 40 mg/kg orally once a day, from third day of treatment to Day 28, vs vehicle",statistically significant improvement
same,reduction in proliferation,U266B,about 20%
same,BMSC viability,BMSC,Neither p38α MAPK inhibition nor high concentrations of Compound 57 (tested up to 50-fold excess of active concentration) affected BMSC viability
same,IL-1 and TGFβ induction of IL-11 at the mRNA and protein levels,IL-11; BMSC cultures,blocked
same,IL-1 and TGFβ induction of IL-11 at the mRNA and protein levels,IL-11; MM/BMSC cultures,blocked
same,LPS-induced IL-1β release,IL-1β,dose-dependent reduction
same,basal expression of RANKL mRNA,RANKL mRNA,blocked
same,RANKL mRNA induction by TGFβ and IL-1,RANKL mRNA; BMSC cultures,blocked
same,induction of RANKL by IL-6,RANKL mRNA; BMSC,blocks
same,RANKL mRNA induction by TGFβ and IL-1,RANKL mRNA; MM/BMSC cultures,blocked
same,LPS-induced TNF-α secretion,TNF-α,dose-dependent reduction
same,PGE2 levels,PGE2,reduced
CN(C)C(=O)C(=O)c1c[nH]c2cc(Cl)c(C(=O)N3CCC(Cc4ccc(F)cc4)CC3)cc12 [Compound 162],mature osteoclast formation,[3],complete blockage
same,mature osteoclast formation prevented,[3],in a dose dependent manner
